From patent US20260374739A1, “SMALL MOLECULAR WEIGHT CHEMICAL COMPOUND TO ANTAGONIZE EPH-EPHRIN TETRAMERIZATION AND INHIBIT BIDIRECTIONAL SIGNALING” (THE BOARD OF REGENTS OF THE UNIVERSITY OF TEXAS SYSTEM, priority 2022, published 2026)
pIC50: −log10 of the molar value. “And” between values parts separate entries of the source, which are not always exact repeats. Equal entries are not always repeated. Where two headings read alike, the source gives them in different places.

Experiments:
EphB4-EphrinB2 = target: T1, EphB4-EphrinB2 (Mus musculus, UniProt P54761); test: Octet RED384, immobilized mouse EphB4-Fc binding to mouse EB2-His
T1 construct: biosensor immobilized rodent EphB1-Fc and EphB4-Fc ectodomain proteins; mouse EB2-His residues 18-232; purchased R&D Systems (EphB-Fc); Sino Biologicals (EphrinB-His)
T1 sequence (P54761 16-539 limits assumed): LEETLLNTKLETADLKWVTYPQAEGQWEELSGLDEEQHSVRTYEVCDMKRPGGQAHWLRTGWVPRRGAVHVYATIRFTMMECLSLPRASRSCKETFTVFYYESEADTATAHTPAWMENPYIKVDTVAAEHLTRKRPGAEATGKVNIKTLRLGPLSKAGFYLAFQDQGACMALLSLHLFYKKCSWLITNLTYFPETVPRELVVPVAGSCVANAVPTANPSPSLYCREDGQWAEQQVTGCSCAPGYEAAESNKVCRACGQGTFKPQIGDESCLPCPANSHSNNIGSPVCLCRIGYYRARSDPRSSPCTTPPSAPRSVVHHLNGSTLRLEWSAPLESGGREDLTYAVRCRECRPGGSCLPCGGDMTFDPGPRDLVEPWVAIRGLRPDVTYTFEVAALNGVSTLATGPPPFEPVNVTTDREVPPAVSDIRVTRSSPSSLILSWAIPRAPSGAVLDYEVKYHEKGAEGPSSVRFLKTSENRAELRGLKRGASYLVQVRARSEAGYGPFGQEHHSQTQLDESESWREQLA
Description: […] Association time was for 400 sec and dissociation time was for 500 sec. Binding assays were conducted in PBS containing 0.05% Tween-20 and 1% DMSO.

EphA3-EphrinA1 = target: T2, EphA3-EphrinA1 (Homo sapiens, UniProt P29320); test: Octet, immobilized human EphA3 binding to human EphrinA1; conditions: for pIC50: immobilized human EphA3, 50 nM soluble human EphrinA1
T2 sequence (P29320 21-541 limits assumed): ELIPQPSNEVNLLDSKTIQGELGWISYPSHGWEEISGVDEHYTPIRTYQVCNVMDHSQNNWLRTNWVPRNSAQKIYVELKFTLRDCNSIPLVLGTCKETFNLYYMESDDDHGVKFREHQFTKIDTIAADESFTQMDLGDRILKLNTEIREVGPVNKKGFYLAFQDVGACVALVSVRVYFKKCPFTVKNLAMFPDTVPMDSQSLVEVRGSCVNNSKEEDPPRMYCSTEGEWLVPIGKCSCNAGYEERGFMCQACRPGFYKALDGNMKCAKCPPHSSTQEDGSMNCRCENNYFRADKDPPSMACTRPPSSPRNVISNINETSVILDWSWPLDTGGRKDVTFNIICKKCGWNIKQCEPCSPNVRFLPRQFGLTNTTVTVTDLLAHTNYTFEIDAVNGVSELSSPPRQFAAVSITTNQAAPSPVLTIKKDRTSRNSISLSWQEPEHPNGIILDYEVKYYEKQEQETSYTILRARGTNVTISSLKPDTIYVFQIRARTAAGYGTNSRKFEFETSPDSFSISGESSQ
Description: (§1) The Octet system was used to probe the interactions of epitope-tagged human A class proteins, focusing on immobilized EphA3 binding to two of its cognate ligands, EphrinA1 and EphrinA5, as well as EphB2 binding to EphrinA5 (FIG. 27). […] Focusing on the dimerization-driven EphA3-EA5 interaction first (green sensorgram trace), which mimics what is disclosed above for EphB4-EB2, the initial binding of soluble EphrinA5 to the immobilized EphA3 is very fast and strong with a long and steep 84° slope of response that then quickly bends around 35 sec into the association step to form a more gradual tetramerization accumulation slope. […] However, again like the EphB4-EB2 interaction, once placed into dissociation, a significant fraction of the bound EA5 protein melts quickly and the off phase continues downward with a slow gradual decline in bound protein. Although the dissociation was for only 500 sec, the continued downward slope of the response indicates most of the bound EA5 protein would eventually melt off of the immobilized EphA3 protein. This is referred to as a classic dimerization-driven interaction, fast and strong initial binding in the association step but with most of the bound protein coming off in the dissociation due to lack of formation of stable tetramers. EphA3 interacts with EphrinA1 with totally different kinetics/dynamics (orange sensorgram trace). Here, the initial high 84° dimerization slope phase is extremely brief (5 sec) with the binding quickly snapping into a linear tetramerization accumulation phase with a 25° slope, and that once placed into dissociation step almost no bound protein melts, just the small amount that would represent dimer interactions falling off in the first few seconds after being placed into dissociation. […] EphB2 interacting with EA5 is similar to the EphA3-EA1 interaction, in that the association step is characterized by a very brief (5 sec) high 84° slope phase that quickly bends into a more gradual tetramer accumulation phase (blue sensorgram trace). […] The strong initial off phase of the EphB2-EA5 complexes in the dissociation represents both the melting of weak dimers and of the relatively weaker affinity tetramers formed by the cross A/B class EphB2-EA5 molecules.
(§2) While there is no effect of A20 on the initial 5 sec fast EphA3-EA1 dimer phase, there is a very strong effect of compound on tetramer accumulation. It was estimated that >70% of the EphA3-EA1 binding interaction can be attributed to the tetramer which is effectively disrupted by compound, with very little binding activity attributed to the dimer and more accurately the dimerization:tetramerization ratio of this interaction is 10:90 not 30:70. […] Since this is a dimerization-driven type interaction (dimerization:tetramerization ratio of here is 72:28), the overall effect of compound on this interaction is muted.

EphA3-EphrinA5 = target: T3, EphA3-EphrinA5 (Homo sapiens, UniProt P29320); test: Octet, immobilized human EphA3 binding to human EphrinA5
T3 sequence (P29320 21-541 limits assumed): T2 sequence (P29320 21-541 limits assumed)
Description: as §1, §2

[1] = mEphB4-mEphrinB2, immobilized mouse EphB4, 50 nM soluble mouse EphrinB2, association, absolute, read-out: Absolute Association IC50
[2] = mEphB4-mEphrinB2, immobilized mouse EphB4, 50 nM soluble mouse EphrinB2, association, relative, read-out: Relative Association IC50
[3] = mEphB4-mEphrinB2, immobilized mouse EphB4, 50 nM soluble mouse EphrinB2, dissociation, absolute, read-out: Absolute Dissociation IC50
[4] = Human EphA3-EphrinA1, association, absolute, read-out: Absolute Association IC50
[5] = Human EphA3-EphrinA1, association, relative, read-out: Relative Association IC50
[6] = Human EphA3-EphrinA1, dissociation, absolute, read-out: Absolute Dissociation IC50
[7] = Human EphA3-EphrinA1, dissociation, relative, read-out: Relative Dissociation IC50
[8] = Human EphA3-EphrinA5, immobilized human EphA3, 50 nM soluble human EphrinA5, association, absolute, read-out: Absolute Association IC50
[9] = Human EphA3-EphrinA5, immobilized human EphA3, 50 nM soluble human EphrinA5, association, relative, read-out: Relative Association IC50
[10] = Human EphA3-EphrinA5, immobilized human EphA3, 50 nM soluble human EphrinA5, dissociation, relative, read-out: Relative Dissociation IC50
[11] = mEphB4-mEphrinB2, immobilized mouse EphB4, 50 nM soluble mouse EphrinB2, dissociation, relative, read-out: Relative Dissociation IC50
[12] = Absolute Association IC50, Human EphA3-EphrinA1, association, absolute
[13] = Relative Association IC50, Human EphA3-EphrinA1, association, relative
[14] = Human EphA3-EphrinA5, immobilized human EphA3, 50 nM soluble human EphrinA5, dissociation, absolute, read-out: Absolute Dissociation IC50
[15] = Relative Dissociation IC50, Human EphA3-EphrinA1, dissociation, relative

Row | SMILES | pIC50 (EphB4-EphrinB2; [1]) | pIC50 (EphB4-EphrinB2; [2]) | pIC50 (EphB4-EphrinB2; [3]) | pIC50 (EphA3-EphrinA1; [4]) | pIC50 (EphA3-EphrinA1; [5]) | pIC50 (EphA3-EphrinA1; [6]) | pIC50 (EphA3-EphrinA1; [7]) | pIC50 (EphA3-EphrinA5) | pIC50 (EphA3-EphrinA5; [8]) | pIC50 (EphA3-EphrinA5; [9]) | pIC50 (EphA3-EphrinA5; [10]) | pIC50 (EphB4-EphrinB2; [11]) | pIC50 (EphA3-EphrinA1; [13]) | pIC50 (EphA3-EphrinA5; [14]) | further results
1 | Oc1ccc(CN2CCOCC2)c2cccnc12 [Compound 1, 5-(morpholinomethyl)quinolin-8-ol] | 4.00 | 4.00 | 4.00 | 5.08 | 5.20 | 5.17 | 5.62 | 5.49 | 4.00 | > 6.00 | 5.91 |  |  |  | 
2 | Oc1c(Cl)cc(CN2CCOCC2)c2cccnc12 [Compound 4, 4-((7-chloro-8-hydroxyquinolin-1-ium-5-yl)methyl)morpholin-4-ium chloride] | < 5.00 | 5.50 | 6.08 |  |  | 6.05 | 6.05 | 6.27 | 4.89 | 6.00 |  | 6.28 | 6.05 | 6.21 | pIC50 (EphA3-EphrinA1; [12]): 5.74
3 | Oc1c(Br)cc(CN2CCOCC2)c2cccnc12 [Compound 5, 7-bromo-5-(morpholinomethyl)quinolin-8-ol] |  |  |  |  |  |  |  |  |  |  |  |  |  |  | pIC50 (EphB4-EphrinB2; EphB4-EB2, read-out: area under the curve IC50): < 4.00; inhibition at 1 µM (EphA3-EphrinA1; 1 μM, read-out: tetramers lost): ~50%; loss of tetramer formation (EphA3-EphrinA1; 100 μM): near complete loss of tetramer formation; loss of tetramer accumulation (EphA3-EphrinA5; 1 μM): striking maximized loss of tetramer accumulation
4 | Oc1c(Br)cc(CN2CCOCC2)c2cccnc12 [Compound 6, 4-((7-bromo-8-hydroxyquinolin-1-ium-5-yl)methyl)morpholin-4-ium chloride] | 4.00 | 6.66 | 6.39 |  |  | 5.70 |  | 6.43 | 4.00 | 6.28 |  | 6.66 | 5.14 | 6.28 | 
5 | Oc1c(I)cc(CN2CCOCC2)c2cccnc12 [Compound 8, 4-((8-hydroxy-7-iodoquinolin-1-ium-5-yl)methyl)morpholin-4-ium chloride] | < 5.80 and 4.00 | 6.29 and 6.47 | 6.19 and 6.17 | 6.35 and 5.84 | 6.72 and 6.15 | 5.92 and 5.82 | 6.34 and 5.94 | 6.44 | < 5.80 | 6.30 |  | 6.28 |  | 6.32 | 
6 | O=[N+]([O-])c1cc(CN2CCOCC2)c2cccnc2c1O [Compound 10, 4-((8-hydroxy-7-nitroquinolin-1-ium-5-yl)methyl)morpholin-4-ium chloride] | 4.00 | 5.20 | 5.58 |  | 5.08 |  | 5.37 | 5.35 | 4.00 | 5.60 | 6.10 | 5.62 |  |  | pIC50 (EphA3-EphrinA1; [12]): 4.85; pIC50 (EphA3-EphrinA1; Absolute Dissociation IC50, Human EphA3-EphrinA1, dissociation, absolute): 5.20
7 | O=S1(=O)CCN(Cc2ccc(O)c3ncccc23)CC1 [Compound 15, 4-((8-hydroxyquinolin-1-ium-5-yl)methyl)thiomorpholin-4-ium 1,1-dioxide chloride] | 4.00 | < 5.00 | 4.88 | 4.00 |  | 4.53 |  | 5.68 | 4.00 | < 6.00 | > 6.00 | 6.20 | 4.91 |  | pIC50 (EphA3-EphrinA1; [15]): 5.22
8 | Oc1ccc(CN2CCN(Cc3ccc(C(F)(F)F)cc3)CC2)c2cccnc12 [Compound 48, 5-((4-(4-(trifluoromethyl)benzyl)piperazin-1-yl)methyl)quinolin-8-ol] |  | 5.08 |  | 4.00 | 4.00 | 5.03 |  | 5.36 | 4.00 | 5.49 |  | 5.72 |  | 5.20 | pIC50 (EphA3-EphrinA1; [15]): 5.28
